{"source": "patent US20030216427A1", "about": "“Amine derivatives for the treatment of apoptosis” (priority 2000, published 2003)", "key": {"gerbils": {"tested_on": "gerbils", "assay": "Global ischemia in gerbils (in vivo)", "set-up": "species or system gerbil", "settings": "30 mg/kg, 5 min carotid occlusion", "method": "The ability of the amine compounds of formula I to protect cell death during a stroke event may be assessed using the following protocol:\nAnesthesia: halothane or isoflurane (0.5-4%).\nSheaving of the gorge and incision of the skin.\nThe common carotid arteries (left and right) are freed from tissue.\nOcclusion of the arteries using Bulldog microclamps during 5 min.\nDisinfection of the surgery plan (Betadine®) and suture of the skin (Autoclip® or Michel's hooks).\nStabulation of the animals under heating lamp until awake.\nStabulation of the animals in the animalry in individual cages.\n7 days after ischemia (Decapitation or overdose of pentobarbital).\nFreezing of the brain in isopentane (−20° C.)\nSlicing of the hippocampus using a cryo-microtome (20 μm).\nStaining with cresyl violet and/or TUNEL method\nEvaluation of the lesions (in CA1/CA2 subfields of the hippocampus)\nGerhard & Boast score modified or\nCell counting in the CA1/CA2\nMicrodissection of the cerebral structures\nParameters determined: DNA fragmentation, lactate, calcium penetration.\nAnalytical methods: ELISA, colorimetry, enzymology, radiometry.\nAdministration of the test article or the vehicle: 15 min after reperfusion (5-10 min after the recovery of the anesthesia).\n50 animals : 5 groups of 10 (group A: control, groups B-D : test article at 3 doses and group E : reference compound (ketamine 3×120 mg/kg, ip or Orotic acid 3×300 mg/kg, ip)."}, "recombinant Bax": {"molecular_target": "T1, recombinant Bax (Homo sapiens, UniProt Q07812)", "T1 construct": "Bax-α lacking 20 amino acids at the COOH-terminus; GST (cleaved yes); His; made in house; host or cells: Escherichia coli", "T1 sequence (Q07812 1-172 limits assumed)": "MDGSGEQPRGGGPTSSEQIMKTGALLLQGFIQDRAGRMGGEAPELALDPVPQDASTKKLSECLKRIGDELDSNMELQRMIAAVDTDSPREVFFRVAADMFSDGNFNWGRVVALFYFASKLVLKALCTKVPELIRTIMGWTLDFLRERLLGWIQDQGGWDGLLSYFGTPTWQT", "assay": "In vitro assay for cytochrome c release (mouse liver mitochondria incubated with recombinant Bax)", "format": "biochemical", "settings": "compound at a concentration of 10 μM, 200 nM recombinant Bax", "text": "Hunan Bax-α lacking 20 amino acids at the COOH-terminus is expressed as a GST fusion protein or a His-tagged protein in Escherichia coli, and the protein is purified from the soluble cell fraction. In brief, the GST-Bax fusion protein is applied to a glutathione-Sepha-rose column, and Bax was released by cleavage with thrombin (0.6U/mL). Bax is subsequently purified on heparin-Sepharose, followed by fast protein liquid chromatography (FPLC) Mono Q. His-tagged Bax is purified on a Ni-nitriloacetic acid-agarose column followed by FPLC MonoQ:\nMitochondria are isolated from mouse liver cells by differential centrifugation Cells are broken with a dounce homogenizer and the suspension is centrifuged at 2,000 g in an Eppendorf centrifuge at 4° C. This procedure is repeated until almost all the cells are broken. Supernatants from each step are pooled before centrifugation at 13,000 g at 4° C. for 10 min. […]\nMitochondria (30 μg) from mouse liver are incubated with 200 nM recombinant Bax in the presence of various compounds (5 μM) in 200 μL of KCl buffer for 20 min at 30° C. and are then centrifuged for 4 min at 13,000 g at 4° C. […] Antigen-antibody complexes are detected using horseradish peroxidase-conjugated goat anti-rabbit IgG and enhance chemi-luminescence detection reagents. The cytochrome c bands are scanned and quantified using a Bio-Rad (GS-700 Imaging Densitometer)."}, "[1]": {"tested_on": "Bid-induced Bax activation", "assay": "Release of cytochrome c triggered by Bid-induced Bax activation (mitochondria isolated from HeLa cells)", "format": "biochemical", "settings": "compound at a concentration of 5 μM, 10 nM recombinant Bid", "method": "Concerning the Bid-induced activation of Bax leading to mitochondrial Cytochrome C release, it is referred to the description of Martinou et al. in The Journal of Cell Biology, Vol. 144, No. 5, Mar. 8, 1999, pages 891-901 as well as Eskes, Desagher, Antonsson and Martinou in Molecular and Cellular Biology, February 2000, p. 929-935, Vol. 20, No. 3. Mitochondria isolated from HeLa cells are incubated for 15 min at 30° C. in 100 μl of KCl buffer in the presence or absence of 10 nM recombinant Bid. […] Following incubation, mitochondria were centrifuged for 5 min at 13000 g at 4° C. and the supernatant is collected for cytochrome c analysis. Cytochrome c is detected by Western blotting. The cytochrome c bands are scanned and quantified using a Bio-Rad (GS-700 Imaging Densitometer)."}, "[2]": {"tested_on": "Sympathetic neurons from superior cervical ganglia (SCG) of newborn rats", "assay": "Sympathetic neuron culture and survival assay", "format": "cell-based, rat", "settings": "compound at 10 μM; 24 hours after cell death induction by anti NGF antibody, MTT", "method": "Cell death is induced at day 4 after plating by exposing the culture to medium containing 10 µg/ml of anti NGF antibody (Boehringer Mannheim Corp., Indianapolis, Ind.) and no NGF or arabinosine, in the presence or absence of amino derivatives according to formula I. 24 hours after cell death induction, determination of cell viability is performed by incubation of the culture for 1 hour, at 37° C. in 0.5 mg/ml of 3-(4,5-dimethyl-thiazol-2-yl)2,5 diphenyl tetrazolium bromide (MTT). After incubation in MTT cells are re-suspended in DMSO, transferred to a 96 MTT plate and cell viability is evaluated by measuring optical density at 590nm."}, "male Wistar rats [3]": {"tested_on": "male Wistar rats", "assay": "Kainate-induced neuronal cell death in the rat hippocampus", "format": "in vivo", "settings": "dose of 30 mg/kg (i.v.)", "method": "The compounds of the present invention were also subjected to the model of kainate-induced neuronal cell death in the rat hippocampus. The method used was adapted from Gelowitz, Paterson, Pharmacol.Biochem.Behav., 62: 255-62 (1999), Magyar et al. Transm.Suppl., 52: 109-23 (1998) as well as Sperk et al, Brain Re., 338: 289-95 (1985). […] According to a preferred embodiment, the tested compounds display a protection rate of at least 25%, preferably of at least 40% at a dose of 30 mg/kg (i.v.)"}, "male Wistar rats [4]": {"tested_on": "male Wistar rats", "assay": "Transient model of focal cerebral ischemia (transient middle cerebral artery occlusion)", "format": "in vivo, rat", "settings": "dose of 1 mg/kg (i.v.)", "text": "The compounds of the present invention were also subjected to the transient model of focal cerebral ischemia. The method used was adapted from Nagasawa and Kogure, Stroke, 20, 1037, 1989 as well as Zea Longa, Weinstein, Carlon and Cummins, Stroke, 20, 84, 1989."}}}
{"compound": "CCCCCCCCCCCCC(=O)N1CCC[C@@H]1C(=O)NCCCCCN", "note": "[Example 139, (R)-N-(5-aminopentyl)-1-tridecanoylpyrrolidine-2-carboxamide]", "values": [{"measurement": "protection rate of cell survival", "setting": "gerbils", "result": "~55", "unit": "%"}]}
{"compound": "CCCCCCCCCCCCC(=O)N1CCC[C@H]1C(=O)NCCCCCCN", "note": "[Example 7, (S)-N-(6-aminohexyl)-1-tridecanoylpyrrolidine-2-carboxamide]", "values": [{"measurement": "inhibition at 10 µM", "setting": "recombinant Bax", "result": "~88", "unit": "%"}]}
{"compound": "CCCCCCCCCCCCC(=O)N(C)[C@H](C(=O)NCCCCCCN)C(C)C", "note": "[Example 22, (S)-N-(1-{[(6-aminohexyl)amino]carbonyl)-2-methylpropyl)-N-methyltridecanamide]", "values": [{"measurement": "inhibition of the cytochrome c release", "setting": "[1]", "result": "about 95%"}]}
{"compound": "CCCCCCCCCCCCC(=O)N1CCCC[C@@H]1C(=O)NCCCCCCN", "note": "[Example 2, (R)-N-(6-aminohexyl)-1-tridecanoylpiperidine-2-carboxamide]", "values": [{"measurement": "neuronal survival rate", "setting": "[2]", "result": "about 41%"}]}
{"compound": "CCCCCCCCCCCCC(=O)N1CCCC[C@H]1C(=O)NCCCCCCN", "note": "[Example 1, (S)-1-Tridecanoyl-piperidine-2-carboxylic acid (6-amino-hexyl)-amide]", "values": [{"measurement": "protection rate of cell survival", "setting": "gerbils", "result": "about 45%"}, {"measurement": "protection rate", "setting": "male Wistar rats [3]", "result": "about 50%"}, {"measurement": "decrease in the cortex infarct volume", "setting": "male Wistar rats [4]", "result": "about 56%"}]}
